# Results published in ChEMBL document CHEMBL3217526, “Bioguided discovery and pharmacophore modeling of the mycotoxic indole diterpene alkaloids penitrems as breast cancer proliferation, migration, and invasion inhibitors” (Medchemcomm, 2013).
# Assays:
# Type in all cases: functional
# NCI-H460 = assay: Cytotoxicity against human NCI-H460 cells assessed as growth inhibition at 10 uM; conditions: read-out: GI
# HOP-62 = assay: Cytotoxicity against human HOP62 cells assessed as growth inhibition at 10 uM; conditions: read-out: GI
# HCC 2998 = assay: Cytotoxicity against human HCC2998 cells assessed as growth inhibition at 10 uM; conditions: read-out: GI
# MCF7 = assay: Cytotoxicity against human MCF7 cells assessed as growth inhibition at 10 uM; conditions: read-out: GI
# SN12C = assay: Cytotoxicity against human SN12C cells assessed as growth inhibition at 10 uM; conditions: read-out: GI
# HT-29 = assay: Cytotoxicity against human HT-29 cells assessed as growth inhibition at 10 uM; conditions: read-out: GI
# SK-MEL-2 = assay: Cytotoxicity against human SK-MEL-2 cells assessed as growth inhibition at 10 uM; conditions: read-out: GI
# NCI-H522 = assay: Cytotoxicity against human NCI-H522 cells assessed as growth inhibition at 10 uM; conditions: read-out: GI
# NCI-H322M = assay: Cytotoxicity against human NCI-H322M cells assessed as growth inhibition at 10 uM; conditions: read-out: GI
# SK-MEL-5 = assay: Cytotoxicity against human SK-MEL-5 cells assessed as growth inhibition at 10 uM; conditions: read-out: GI
# T47D = assay: Cytotoxicity against human T47D cells assessed as growth inhibition at 10 uM; conditions: read-out: GI
# SF-295 = assay: Cytotoxicity against human SF295 cells assessed as growth inhibition at 10 uM; conditions: read-out: GI
# U-251 = assay: Cytotoxicity against human U251 cells assessed as growth inhibition at 10 uM; conditions: read-out: GI
# SF-539 = assay: Cytotoxicity against human SF539 cells assessed as growth inhibition at 10 uM; conditions: read-out: GI
# Malme-3M = assay: Cytotoxicity against human MALME-3M cells assessed as growth inhibition at 10 uM; conditions: read-out: GI
# LOX IMVI = assay: Cytotoxicity against human LOXIMVI cells assessed as growth inhibition at 10 uM; conditions: read-out: GI
# MDA-MB-231 [1] = assay: Cytotoxicity against human MDA-MB-231 cells assessed as growth inhibition at 10 uM; conditions: read-out: GI
# [2] = Cytotoxicity against human Hs578T cells assessed as growth inhibition at 10 uM; conditions: Hs-578T, read-out: GI
# SK-OV-3 = assay: Cytotoxicity against human SKOV3 cells assessed as growth inhibition at 10 uM; conditions: read-out: GI
# SK-MEL-28 = assay: Cytotoxicity against human SK-MEL-28 cells assessed as growth inhibition at 10 uM; conditions: read-out: GI
# MDA-MB-468 = assay: Cytotoxicity against human MDA-MB-468 cells assessed as growth inhibition at 10 uM; conditions: read-out: GI
# K562 = assay: Cytotoxicity against human K562 cells assessed as growth inhibition at 10 uM; conditions: read-out: GI
# M14 = assay: Cytotoxicity against human M14 cells assessed as growth inhibition at 10 uM; conditions: read-out: GI
# BT-549 = assay: Cytotoxicity against human BT549 cells assessed as growth inhibition at 10 uM; conditions: read-out: GI
# [3] = Cytotoxicity against human UACC257 cells assessed as growth inhibition at 10 uM; conditions: UACC-257, read-out: GI
# NCI-H23 = assay: Cytotoxicity against human NCI-H23 cells assessed as growth inhibition at 10 uM; conditions: read-out: GI
# [4] = Cytotoxicity against human HCT15 cells assessed as growth inhibition at 10 uM; conditions: HCT-15, read-out: GI
# MDA-MB-435 = assay: Cytotoxicity against human MDA-MB-435 cells assessed as growth inhibition at 10 uM; conditions: read-out: GI
# HCT-116 = assay: Cytotoxicity against human HCT116 cells assessed as growth inhibition at 10 uM; conditions: read-out: GI
# NCI-H226 = assay: Cytotoxicity against human NCI-H226 cells assessed as growth inhibition at 10 uM; conditions: read-out: GI
# [5] = Cytotoxicity against human EKVX cells assessed as growth inhibition at 10 uM; conditions: read-out: GI
# [6] = Cytotoxicity against human UACC62 cells assessed as growth inhibition at 10 uM; conditions: UACC-62, read-out: GI
# KM12 = assay: Cytotoxicity against human KM12 cells assessed as growth inhibition at 10 uM; conditions: read-out: GI
# SW-620 = assay: Cytotoxicity against human SW620 cells assessed as growth inhibition at 10 uM; conditions: read-out: GI
# CAKI-1 = assay: Cytotoxicity against human CAKI-1 cells assessed as growth inhibition at 10 uM; conditions: read-out: GI
# [7] = Cytotoxicity against human UO31 cells assessed as growth inhibition at 10 uM; conditions: UO-31, read-out: GI
# ACHN = assay: Cytotoxicity against human ACHN cells assessed as growth inhibition at 10 uM; conditions: read-out: GI
# [8] = Cytotoxicity against human OVCAR5 cells assessed as growth inhibition at 10 uM; conditions: OVCAR-5, read-out: GI
# MOLT-4 = assay: Cytotoxicity against human MOLT4 cells assessed as growth inhibition at 10 uM; conditions: read-out: GI
# IGROV-1 = assay: Cytotoxicity against human IGROV1 cells assessed as growth inhibition at 10 uM; conditions: read-out: GI
# SF-268 = assay: Cytotoxicity against human SF268 cells assessed as growth inhibition at 10 uM; conditions: read-out: GI
# RXF 393 = assay: Cytotoxicity against human RXF393 cells assessed as growth inhibition at 10 uM; conditions: read-out: GI
# COLO 205 = assay: Cytotoxicity against human COLO205 cells assessed as growth inhibition at 10 uM; conditions: read-out: GI
# [9] = Cytotoxicity against human OVCAR3 cells assessed as growth inhibition at 10 uM; conditions: OVCAR-3, read-out: GI
# 786-0 = assay: Cytotoxicity against human 786-0 cells assessed as growth inhibition at 10 uM; conditions: read-out: GI
# SNB-19 = assay: Cytotoxicity against human SNB19 cells assessed as growth inhibition at 10 uM; conditions: read-out: GI
# MDA-MB-231 [10] = assay: Antiinvasive activity against human MDA-MB-231 cells assessed as inhibition of cell invasion at 15 uM after 24 hrs by BME Cell invasion assay kit; conditions: MDA-MB-231, 24 h
# HL-60(TB) = assay: Cytotoxicity against human HL-60(TB) cells assessed as growth inhibition at 10 uM; conditions: read-out: GI
# SNB-75 = assay: Cytotoxicity against human SNB75 cells assessed as growth inhibition at 10 uM; conditions: read-out: GI
# A549 = assay: Cytotoxicity against human A549 cells assessed as growth inhibition at 10 uM; conditions: read-out: GI
# [11] = Cytotoxicity against human OVCAR8 cells assessed as growth inhibition at 10 uM; conditions: OVCAR-8, read-out: GI
# CCRF-CEM = assay: Cytotoxicity against human CCRF-CEM cells assessed as growth inhibition at 10 uM; conditions: read-out: GI
# DU-145 = assay: Cytotoxicity against human DU145 cells assessed as growth inhibition at 10 uM; conditions: read-out: GI
# PC-3 = assay: Cytotoxicity against human PC3 cells assessed as growth inhibition at 10 uM; conditions: read-out: GI
# TK-10 = assay: Cytotoxicity against human TK10 cells assessed as growth inhibition at 10 uM; conditions: read-out: GI
# SR = assay: Cytotoxicity against human SR cells assessed as growth inhibition at 10 uM; conditions: read-out: GI
structure (smiles),measurement,setting,value
C=C(C)[C@H]1O[C@H]2CC[C@@]3(C)[C@@](O)(CC[C@H]4[C@@H]5OC(C)(C)[C@H]6C[C@@H]7C(=C)Cc8c(Cl)cc9[nH]c(c5c9c8[C@@]76O)[C@@]43C)[C@@]23O[C@H]3[C@H]1O [PENITREM A],inhibition of growth at 10 µM,NCI-H460,85.5%
same,inhibition of growth at 10 µM,HOP-62,107%
same,inhibition of growth at 10 µM,HCC 2998,77%
same,inhibition of growth at 10 µM,MCF7,55.8%
same,inhibition of growth at 10 µM,SN12C,73.3%
same,inhibition of growth at 10 µM,HT-29,86.9%
same,inhibition of growth at 10 µM,SK-MEL-2,95.1%
same,inhibition of growth at 10 µM,NCI-H522,77.1%
same,inhibition of growth at 10 µM,NCI-H322M,65.2%
same,inhibition of growth at 10 µM,SK-MEL-5,68.3%
same,inhibition of growth at 10 µM,T47D,73.9%
same,inhibition of growth at 10 µM,SF-295,57.1%
same,inhibition of growth at 10 µM,U-251,85.1%
same,inhibition of growth at 10 µM,SF-539,89%
same,inhibition of growth at 10 µM,Malme-3M,43.2%
same,inhibition of growth at 10 µM,LOX IMVI,79.4%
same,inhibition of growth at 10 µM,MDA-MB-231 [1],97.5%
same,inhibition of growth at 10 µM,[2],94%
same,inhibition of growth at 10 µM,SK-OV-3,109%
same,inhibition of growth at 10 µM,SK-MEL-28,83.4%
same,inhibition of growth at 10 µM,MDA-MB-468,69.6%
same,inhibition of growth at 10 µM,K562,66.1%
same,inhibition of growth at 10 µM,M14,62.6%
same,inhibition of growth at 10 µM,BT-549,98.2%
same,inhibition of growth at 10 µM,[3],76.2%
same,inhibition of growth at 10 µM,NCI-H23,88.6%
same,inhibition of growth at 10 µM,[4],78.7%
same,inhibition of growth at 10 µM,MDA-MB-435,52.9%
same,inhibition of growth at 10 µM,HCT-116,67.4%
same,inhibition of growth at 10 µM,NCI-H226,76.8%
same,inhibition of growth at 10 µM,[5],76.3%
same,inhibition of growth at 10 µM,[6],74.9%
same,inhibition of growth at 10 µM,KM12,71.5%
same,inhibition of growth at 10 µM,SW-620,93.3%
same,inhibition of growth at 10 µM,CAKI-1,35.5%
same,inhibition of growth at 10 µM,[7],41%
same,inhibition of growth at 10 µM,ACHN,75.2%
same,inhibition of growth at 10 µM,[8],105%
same,inhibition of growth at 10 µM,MOLT-4,53.2%
same,inhibition of growth at 10 µM,IGROV-1,74.9%
same,inhibition of growth at 10 µM,SF-268,71%
same,inhibition of growth at 10 µM,RXF 393,76.5%
same,inhibition of growth at 10 µM,COLO 205,91.3%
same,inhibition of growth at 10 µM,[9],92.6%
same,inhibition of growth at 10 µM,786-0,93.1%
same,inhibition of growth at 10 µM,SNB-19,67.7%
same,inhibition at 15 µM,MDA-MB-231 [10],> 75%
same,inhibition of growth at 10 µM,HL-60(TB),74.7%
same,inhibition of growth at 10 µM,SNB-75,53.7%
same,inhibition of growth at 10 µM,A549,73.7%
same,inhibition of growth at 10 µM,[11],83.2%
same,inhibition of growth at 10 µM,CCRF-CEM,57.2%
same,inhibition of growth at 10 µM,DU-145,85.5%
same,inhibition of growth at 10 µM,PC-3,39.3%
same,inhibition of growth at 10 µM,TK-10,98.6%
same,inhibition of growth at 10 µM,SR,46%
